Reference: patent US10821115B2, “Compounds that inhibit Mcl-1 protein” (priority 2017, dated 2020)
Like-named read-outs stand apart in the source and are kept apart here.

Columns and labels:
[1] = molecular target: recombinant human Mcl-1 (residues 171-327) / Bim interaction (Homo sapiens (Human), UniProt Q07820); assay: biochemical; format: binding; conditions: read-out: Mcl-1 HTRF IC50
[2] = tested on: human multiple myeloma cell line, OPM-2; assay: Cell viability assay (OPM-2 10 FBS), CellTiter-Glo; format: cell-based
How it was run: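 Steps: plate cells at 3000/well in 10% FBS growth medium, add serially diluted compound, incubate 16 h at 37 °C with 5% CO2, add detection reagent and read luminescence after 25 min. A 4-parameter logistic model gives IC50.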

[3] = TR-FRET, Mcl-1(171-327) / biotin-Bim (51-76)
[4] = Homo sapiens, OPM-2, 16 h, read-out: OPM-2 10% FBS IC50 IP, OPM-2 cells, 10% FBS, 16 h, CellTiter-Glo
[5] = 0.1 nM Mcl-1(171-327), 0.05 nM biotin-Bim (51-76)
[6] = Homo sapiens, OPM-2, 16 h, read-out: OPM-2 10% FBS IC50 IP, OPM-2 cells, 10% FBS, 16 h incubation

Chain of recombinant human Mcl-1 (residues 171-327) / Bim interaction (Q07820 171-327): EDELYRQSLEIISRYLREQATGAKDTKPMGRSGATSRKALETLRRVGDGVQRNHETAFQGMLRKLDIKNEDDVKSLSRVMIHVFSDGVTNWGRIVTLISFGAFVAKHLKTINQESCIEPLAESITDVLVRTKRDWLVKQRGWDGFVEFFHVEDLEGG

Row | Molecule | IC50 [1, 3] [nM] | IC50 [2, 4] [nM] | IC50 [1, 5] [nM] | IC50 [2, 6] [nM] | further results
1 | CO[C@@]1(Cc2nccs2)/C=C/C[C@H](C)[C@@H](C)S(=O)(=O)NC(=O)c2ccc3c(c2)N(C[C@@H]2CC[C@H]21)C[C@@]1(CCCc2cc(Cl)ccc21)CO3 [Example 100525, (1S,3′R,6′R,7′S,8′E,11′S,12′R)-6-chloro-7′-methoxy-11′,12′-dimethyl-7′-(1,3-thiazol-2-ylmethyl)-3,4-dihydro-2H,15′H-spiro[naphthalene-1,22′-[20]oxa[13]thia[1,14]diazatetracyclo [14.7.2.0~3,6~.0~19,24~]pentacosa[8,16,18,24]tetraen]-15′-one 13′,13′-dioxide] | 3.31 | 1430 |  |  | 
2 | CO[C@@]1(CN2CCN(CC(F)F)CC2)/C=C/C[C@H](C)[C@@H](C)S(=O)(=O)NC(=O)c2ccc3c(c2)N(C[C@@H]2CC[C@H]21)C[C@@]1(CCCc2cc(Cl)ccc21)CO3 [Example 306, (1S,3′R,6′R,7′S,8′E,11′S,12′R)-6-chloro-7′-((4-(2,2-difluoroethyl)-1-piperazinyl)methyl)-7′-methoxy-11′,12′-dimethyl-3,4-dihydro-2H,15′H-spiro[naphthalene-1,22′-[20]oxa[13]thia[1,14]diazatetracyclo [14.7.2.0~3,6~.0~19,24~]pentacosa[8,16,18,24]tetraen]-15′-one 13′,13′-dioxide] |  |  | 0.282 | 246 | 
3 | CC#C[C@]1(OC)CCC[C@H](C)[C@@H](C)S(=O)(=O)NC(=O)c2ccc3c(c2)N(C[C@@H]2CC[C@H]21)C[C@@]1(CCCc2cc(Cl)ccc21)CO3 [Example 100332, (1S,3′R,6′R,7′S,11′S,12′R)-6-chloro-7′-methoxy-11′,12′-dimethyl-7′-(1-propyn-1-yl)-3,4-dihydro-2H,15′H-spiro[naphthalene-1,22′-[20]oxa[13]thia[1,14]diazatetracyclo [14.7.2.0~3,6~.0~19,24~]pentacosa[16,18,24]trien]-15′-one 13′,13′-dioxide] | 6.46 | 4310 |  |  | 
4 | C[C@@H]1[C@@H](C)C/C=C/[C@](O)(c2ncccc2F)[C@@H]2CC[C@H]2CN2C[C@@]3(CCCc4cc(Cl)ccc43)COc3ccc(cc32)C(=O)NS1(=O)=O [Example 100385, (1S,3′R,6′R,7′R,8′E,11′S,12′R)-6-chloro-7′-(3-fluoro-2-pyridinyl)-7′-hydroxy-11′,12′-dimethyl-3,4-dihydro-2H,15′H-spiro[naphthalene-1,22′-[20]oxa[13]thia[1,14]diazatetracyclo [14.7.2.0~3,6~.0~19,24~]pentacosa[8,16,18,24]tetraen]-15′-one 13′,13′-dioxide] | 0.144 | 144 |  |  | 
5 | CO[C@@]1(CN2CC3(C2)CN(C)C(=O)O3)/C=C/C[C@H](C)[C@@H](C)S(=O)(=O)NC(=O)c2ccc3c(c2)N(C[C@@H]2CC[C@H]21)C[C@@]1(CCCc2cc(Cl)ccc21)CO3 [Example 291, (1S,3′R,6′R,7′S,8′E,11′S,12′R)-6-chloro-7′-methoxy-11′,12′-dimethyl-7′-((7-methyl-6-oxo-5-oxa-2,7-diazaspiro[3.4]oct-2-yl)methyl)-3,4-dihydro-2H,15′H-spiro[naphthalene-1,22′-[20]oxa[13]thia[1,14]diazatetracyclo [14.7.2.0~3,6~.0~19,24~]pentacosa[8,16,18,24]tetraen]-15′-one 13′,13′-dioxide] |  |  | 0.083 | 104 | 
6 | CO[C@@]1(CCN2CCOCC2)/C=C/C[C@H](C)[C@@H](C)S(=O)(=O)NC(=O)c2ccc3c(c2)N(C[C@@H]2CC[C@H]21)C[C@@]1(CCCc2cc(Cl)ccc21)CO3 [Example 100419, (1S,3′R,6′R,7′S,8′E,11′S,12′R)-6-chloro-7′-methoxy-11′,12′-dimethyl-7′-(2-(4-morpholinyl)ethyl)-3,4-dihydro-2H,15′H-spiro[naphthalene-1,22′-[20]oxa[13]thia[1,14]diazatetracyclo [14.7.2.0~3,6~.0~19,24~]pentacosa[8,16,18,24]tetraen]-15′-one 13′,13′-dioxide] | 0.277 | 416 |  |  | 
7 | CCOC(=O)C(F)(F)[C@]1(O)/C=C/C[C@H](C)[C@@H](C)S(=O)(=O)NC(=O)c2ccc3c(c2)N(C[C@@H]2CC[C@H]21)C[C@@]1(CCCc2cc(Cl)ccc21)CO3 [Example 100416, ethyl ((1S,3′R,6′R,7′S,8′E,11′S,12′R)-6-chloro-7′-hydroxy-11′,12′-dimethyl-13′,13′-dioxido-15′-oxo-3,4-dihydro-2H-spiro[naphthalene-1,22′-[20]oxa[13]thia[1,14]diazatetracyclo [14.7.2.0~3,6~.0~19,24~]pentacosa[8,16,18,24]tetraen]-7′-yl)(difluoro)acetate] | 0.092 | 86 |  |  | 
8 | (1S,3′R,6′R,7′S,8′E,11′S,12′R)-6-chloro-7′-((9aS)-hexahydropyrazino[2,1-c][1,4]oxazin-8(1H)-ylmethyl)-7′-methoxy-11′-methyl-3,4-dihydro-2H,16′H-spiro[naphthalene-1,23′-[21]oxa[27]thia[1,15]diazapentacyclo[15.7.2.1-12,15˜.0˜3,6˜.0˜20,25˜]heptacos a[8,17,19,25]tetraen]-16′-one 27′,27′-dioxide [Example 364] |  |  | 192 |  | IC50 ([2]; read-out: OPM-2 10% FBS IC50 IP, OPM-2 cells, 10% FBS, 16 h incubation): > 33300 nM
9 | C[C@@H]1[C@@H](C)CCC[C@@](O)(CS(=O)(=O)N(C)C)[C@@H]2CC[C@H]2CN2C[C@@]3(CCCc4cc(Cl)ccc43)COc3ccc(cc32)C(=O)NS1(=O)=O [Example 100100, 1-((1S,3′R,6′R,7′S,11′S,12′R)-6-chloro-7′-hydroxy-11′,12′-dimethyl-13′,13′-dioxido-15′-oxo-3,4-dihydro-2H-spiro[naphthalene-1,22′-[20]oxa[13]thia[1,14]diazatetracyclo [14.7.2.0~3,6~.0~19,24~]pentacosa[16,18,24]trien]-7′-yl)-N,N-dimethylmethanesulfonamide] |  |  |  |  | IC50 [1]: 2.1 nM; IC50 ([2]; read-out: OPM-2 10% FBS IC50 IP, OPM-2 cells, 10% FBS, 16 h, CellTiter-Glo): 1320 nM
10 | CO[C@]1(CN2CCN(C3COCCOC3)CC2)/C=C/C[C@H](C)[C@@H](C)S(=O)(=O)NC(=O)c2ccc3c(c2)N(C[C@@H]2CC[C@H]21)C[C@@]1(CCCc2cc(Cl)ccc21)CO3 [Example 342, (1S,3′R,6′R,7′R,8′E,11′S,12′R)-6-chloro-7′-((4-(1,4-piperazinyl)methyl)-7′-dioxepan-6-yl)-1-methoxy-11′,12′-dimethyl-3,4-dihydro-2H,15′H-spiro[naphthalene-1,22′-[20]oxa[13]thia[1,14]diazatetracyclo [14.7.2.0~3,6~.0~19,24~]pentacosa[8,16,18,24]tetraen]-15′-one 13′,13′-dioxide] |  |  | 0.089 | 104 | 
11 | CO[C@@]1(CN2CCN3CCOC[C@@H]3C2)/C=C/[C@H](C)[C@H](C)CS(=O)(=O)NC(=O)c2ccc3c(c2)N(C[C@@H]2CC[C@H]21)C[C@@]1(CCCc2cc(Cl)ccc21)CO3 [Example 156, (1S,3′R,6′R,7′S,8′E,10′S,11′S)-6-chloro-7′-((9aS)-hexahydropyrazino[2,1-c][1,4]oxazin-8(1H)-ylmethyl)-7′-methoxy-10′,11′-dimethyl-3,4-dihydro-2H,15′H-spiro[naphthalene-1,22′-[20]oxa[13]thia[1,14]diazatetracyclo [14.7.2.0~3,6~.0~19,24~]pentacosa[8,16,18,24]tetraen]-15′-one 13′,13′-dioxide] |  |  | 0.096 | 62 | 
12 | C[C@@H]1[C@@H](C)CCC[C@](CO)(OCCN2CCOCC2)[C@@H]2CC[C@H]2CN2C[C@@]3(CCCc4cc(Cl)ccc43)COc3ccc(cc32)C(=O)NS1(=O)=O [Example 100280, (1S,3′R,6′R,7′S,11′S,12′R)-6-chloro-7′-(hydroxymethyl)-11′,12′-dimethyl-7′-(2-(4-morpholinyl)ethoxy)-3,4-dihydro-2H,15′H-spiro[naphthalene-1,22′-[20]oxa[13]thia[1,14]diazatetracyclo [14.7.2.0~3,6~.0~19,24~]pentacosa[16,18,24]trien]-15′-one 13′,13′-dioxide] | 0.368 | 305 |  |  | 
13 | CCO[C@@]1(CN2CCN(CC)CC2)/C=C/C[C@H](C)[C@@H](C)S(=O)(=O)NC(=O)c2ccc3c(c2)N(C[C@@H]2CC[C@H]21)C[C@@]1(CCCc2cc(Cl)ccc21)CO3 [Example 112, (1S,3′R,6′R,7′S,8′E,11′S,12′R)-6-chloro-7′-ethoxy-7′-((4-ethyl-1-piperazinyl)methyl)-11′,12′-dimethyl-3,4-dihydro-2H,15′H-spiro[naphthalene-1,22′-[20]oxa[13]thia[1,14]diazatetracyclo [14.7.2.0~3,6~.0~19,24~]pentacosa[8,16,18,24]tetraen]-15′-one 13′,13′-dioxide] |  |  | 0.617 | 654 | 
14 | CCO[C@]1(CN2CCN(C(C)(C)C)CC2)/C=C/C[C@H](C)[C@@H](CCOC)S(=O)(=O)NC(=O)c2ccc3c(c2)N(C[C@@H]2CC[C@H]21)C[C@@]1(CCCc2cc(Cl)ccc21)CO3 [Example 190, (1S,3′R,6′R,7′R,8′E,11′S,12′R)-7′-((4-tert-butyl-1-piperazinyl)methyl)-6-chloro-7′-ethoxy-12′-(2-methoxyethyl)-11′-methyl-3,4-dihydro-2H,15′H-spiro[naphthalene-1,22′-[20]oxa[13]thia[1,14]diazatetracyclo [14.7.2.0~3,6~.0~19,24~]pentacosa[8,16,18,24]tetraen]-15′-one 13′,13′-dioxide] |  |  | 0.087 | 53 | 
